ChEMBL document CHEMBL4177539, “Discovery of N-((3R,4R)-4-Fluoro-1-(6-((3-methoxy-1-methyl-1H-pyrazol-4-yl)amino)-9-methyl-9H-purin-2-yl)pyrrolidine-3-yl)acrylamide (PF-06747775) through Structure-Based Drug Design: A High Affinity Irreversible Inhibitor Targeting Oncogenic EGFR Mutants with Selectivity over Wild-Type EGFR” (J Med Chem, 2017)

Tests used:
[1] = species on record: Homo sapiens; assay: Selectivity index, ratio of IC50 for wild-type EGFR autophosphorylation in human A549 cells to IC50 for EGFR T790M/L858R double mutant autophosphorylation in human H1975 cells; format: cell-based
[2] = molecular target: Epidermal growth factor receptor (Homo sapiens, UniProt P00533)
[3] = molecular target: Epidermal growth factor receptor (Homo sapiens, UniProt P00533, EX19DEL/T790M)
[4] = molecular target: Epidermal growth factor receptor (Homo sapiens, UniProt P00533, EX19DEL)
[5] = physchem; details: octanol/water
[6] = in vitro; details: human, liver microsomes

Sequence of Epidermal growth factor receptor (Homo sapiens, UniProt P00533, EX19DEL) (P00533 whole entry, looked up, stated change not applied): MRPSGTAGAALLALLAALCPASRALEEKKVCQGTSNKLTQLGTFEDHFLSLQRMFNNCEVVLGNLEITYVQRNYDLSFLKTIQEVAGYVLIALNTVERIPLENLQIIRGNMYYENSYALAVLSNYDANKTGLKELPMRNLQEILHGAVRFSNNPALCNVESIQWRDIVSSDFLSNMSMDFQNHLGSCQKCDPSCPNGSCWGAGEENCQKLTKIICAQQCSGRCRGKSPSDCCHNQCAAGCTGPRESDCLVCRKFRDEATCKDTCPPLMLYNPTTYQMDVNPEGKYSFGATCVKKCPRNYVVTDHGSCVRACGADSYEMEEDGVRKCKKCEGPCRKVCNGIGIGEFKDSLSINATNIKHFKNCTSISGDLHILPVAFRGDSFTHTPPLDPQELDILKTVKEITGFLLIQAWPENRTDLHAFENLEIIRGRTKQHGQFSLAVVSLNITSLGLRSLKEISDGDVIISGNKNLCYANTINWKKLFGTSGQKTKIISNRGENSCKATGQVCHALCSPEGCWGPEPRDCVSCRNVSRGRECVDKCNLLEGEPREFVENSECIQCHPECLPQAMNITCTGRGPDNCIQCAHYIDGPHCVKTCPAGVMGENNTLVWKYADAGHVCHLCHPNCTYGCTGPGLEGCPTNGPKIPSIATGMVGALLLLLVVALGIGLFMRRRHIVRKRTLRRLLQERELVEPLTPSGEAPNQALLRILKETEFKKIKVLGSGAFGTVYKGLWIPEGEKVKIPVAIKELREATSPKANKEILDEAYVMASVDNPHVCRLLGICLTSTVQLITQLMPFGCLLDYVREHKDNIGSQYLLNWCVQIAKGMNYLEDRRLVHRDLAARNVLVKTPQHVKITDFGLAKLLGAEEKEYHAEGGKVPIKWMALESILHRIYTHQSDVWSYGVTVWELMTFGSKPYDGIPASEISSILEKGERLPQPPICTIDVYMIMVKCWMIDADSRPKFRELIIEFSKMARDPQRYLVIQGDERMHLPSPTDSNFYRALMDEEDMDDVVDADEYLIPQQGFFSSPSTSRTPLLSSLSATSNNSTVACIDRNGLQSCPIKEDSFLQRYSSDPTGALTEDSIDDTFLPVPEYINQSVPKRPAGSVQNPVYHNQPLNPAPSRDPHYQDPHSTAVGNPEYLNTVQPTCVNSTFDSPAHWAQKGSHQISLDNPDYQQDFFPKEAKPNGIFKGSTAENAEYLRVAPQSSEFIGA
Sequence of Epidermal growth factor receptor (Homo sapiens, UniProt P00533, EX19DEL/T790M) (P00533 whole entry, looked up, stated change not applied): as above
Sequence of Epidermal growth factor receptor (Homo sapiens, UniProt P00533) (P00533 whole entry): as the sequence (P00533 whole entry, looked up, stated change not applied) above

## C=CC(=O)N[C@@H]1CN(c2nc(Nc3cn(C)nc3C)c3ncn(C(C)C)c3n2)C[C@H]1F
[1]
  Ratio IC50: 56
[2]
  IC50: 1.45 µM
[3]
  IC50: 0.004 µM
[4]
  IC50: 0.016 µM
[5]
  logD: 2.6
[6]
  microsomal CLint at […], 1 µM: 30 µL/min/mg
